In patent US20030036524A1, “Method of sensitising endothelial cells to prodrugs” (priority 2000, published 2003):

System: HUVEC cells
Assay: Functional bio-assay: endothelial cell proliferation of Ad5C2B1-infected HUVEC cells treated with ifosfamide, crystal-violet cell number
Format: cell-based, human
Conditions: day 8
Procedure: To test the bioactivity of the CYP2B1 transgene, human umbilical vein […] (HUVEC) cells [Jaffe et al.; J. Clin. Invest.
HUVEC cells were infected with Ad5C2B1 on day 2 with concentrations ranging from 0 to 2×10^8 PFU/ml for 2 hours.
The cells were seeded at 40.000 cells/well at day 3 (some wells were not sub-cultured but saved for cell extracts and medium collection at day 4).
HUVEC cells were grown on gelatin-coated tissue culture dishes in medium 199 (Biowhitakker), supplemented with 10% (vol/vol) human serum, 10% (v/v) heat-inactivated newborn calf serum (Biowhitakker), 5 U/mL of heparin (Leo Pharma BV), […] of crude EC growth factor (TNO-PG, Leiden), 100 U/mL of penicillin, and […] of streptomycin (Biowhitakker). Cells were grown at 37° C. in a humid atmosphere with 5% (vol/vol) CO2.
Cell numbers were determined at day 8 using crystal-violet staining and optical density measurement.
To quantify the effect off viral infection and prodrug treatment the cells numbers were determined as described above.

Q: How did the “Number of Cells” value (Virus 0 PFU/ml, Ifosfamide 0.0625 mM) turn out when `O=P1(NCCCl)OCCCN1CCCl` (stereo not drawn) [Ifosfamide, ifosfamide] was run?
A: 152000

Q: And the “Number of Cells” value (Virus 0 PFU/ml, Ifosfamide 0.125 mM)?
A: 151600

Q: What about the “Number of Cells” value (Virus 0 PFU/ml, Ifosfamide 0.25 mM) of the same compound?
A: 152500

Q: What about the “Number of Cells” value (Virus 0 PFU/ml, Ifosfamide 0.50 mM) of the same compound?
A: 116000

Q: What about the “Number of Cells” value (Virus 1 × 10^8 PFU/ml, Ifosfamide 0.0625 mM) of the same compound?
A: 80500

Q: And the “Number of Cells” value (Virus 1 × 10^8 PFU/ml, Ifosfamide 0.125 mM)?
A: 63600

Q: What about the “Number of Cells” value (Virus 1 × 10^8 PFU/ml, Ifosfamide 0.25 mM) of the same compound?
A: 66000

Q: And the “Number of Cells” value (Virus 1 × 10^8 PFU/ml, Ifosfamide 0.50 mM)?
A: 38500

Q: And the “Number of Cells” value (Virus 1.25 × 10^7 PFU/ml, Ifosfamide 0.0625 mM)?
A: 98000

Q: What about the “Number of Cells” value (Virus 1.25 × 10^7 PFU/ml, Ifosfamide 0.125 mM) of the same compound?
A: 110000

Q: What about the “Number of Cells” value (Virus 1.25 × 10^7 PFU/ml, Ifosfamide 0.25 mM) of the same compound?
A: 102000

Q: And the “Number of Cells” value (Virus 1.25 × 10^7 PFU/ml, Ifosfamide 0.50 mM)?
A: 85000

Q: What about the “Number of Cells” value (Virus 2 × 10^8 PFU/ml, Ifosfamide 0.0625 mM) of the same compound?
A: 60000

Q: What about the “Number of Cells” value (Virus 2 × 10^8 PFU/ml, Ifosfamide 0.125 mM) of the same compound?
A: 54000

Q: And the “Number of Cells” value (Virus 2 × 10^8 PFU/ml, Ifosfamide 0.25 mM)?
A: 53000

Q: And the “Number of Cells” value (Virus 2 × 10^8 PFU/ml, Ifosfamide 0.50 mM)?
A: 30000

Q: And the “Number of Cells” value (Virus 2.5 × 10^7 PFU/ml, Ifosfamide 0.0625 mM)?
A: 88000

Q: What about the “Number of Cells” value (Virus 2.5 × 10^7 PFU/ml, Ifosfamide 0.125 mM) of the same compound?
A: 85000

Q: What about the “Number of Cells” value (Virus 2.5 × 10^7 PFU/ml, Ifosfamide 0.25 mM) of the same compound?
A: 79200

Q: And the “Number of Cells” value (Virus 2.5 × 10^7 PFU/ml, Ifosfamide 0.50 mM)?
A: 56000

Q: And the “Number of Cells” value (Virus 5 × 10^7 PFU/ml, Ifosfamide 0.0625 mM)?
A: 87000

Q: And the “Number of Cells” value (Virus 5 × 10^7 PFU/ml, Ifosfamide 0.125 mM)?
A: 85000

Q: And the “Number of Cells” value (Virus 5 × 10^7 PFU/ml, Ifosfamide 0.25 mM)?
A: 75000

Q: What about the “Number of Cells” value (Virus 5 × 10^7 PFU/ml, Ifosfamide 0.50 mM) of the same compound?
A: 55000
